The text below walks through data of patent US6096749A, “Pyrrolopyrimidine derivatives having pharmacological activity” (Novartis Corporation, priority 1994, dated 2000).

What is called IC50 is the concentration at which inhibition is half-maximal.

For one assay, the target named is T1, EGF-R ICD (Homo sapiens, UniProt P00533).
T1 construct: recombinant intracellular domains of the EGF-receptor (EGF-R ICD)
The assay is described as follows: Inhibitory action on EGF-R ICD (intracellular domains of the EGF receptor) tyrosine protein kinase, Test A. The class given is biochemical. Conditions: concentration at which inhibition is half the maximum inhibition. From the text: Test A) Inhibitory action on EGF-R ICD (ICD=intracellular domains): The test system is described above. The result is given as IC50 in μM (concentration of active ingredient at which inhibition is half the maximum inhibition).
The test system is described above. The result is given as IC50 in μM (concentration of active ingredient at which inhibition is half the maximum inhibition).

Assay [1] has as its system BALB/c mouse keratinocyte cell line (MK cells). The assay is described as follows: Inhibitory action on the growth of MK cells (BALB/MK), Test B. It is filed as cell-based. Conditions: 72 h, three days incubation, methylene blue staining, Examples 16 to 22. As to the method:
The test compounds (dissolved in DMSO) are added in a series of concentrations (dilution series), so that the final concentration of DMSO is not grater than 1% (v/v). […] The growth of the MK cells is measured by means of methylene blue staining: after incubation, the cells are fixed with glutaraldehyde, washed with water and stained with 0.05% methylene blue. […] IC50 values are calculated by means of a computer-assisted system using the formula:
IC50 =(ODtest -ODstart)/(ODcontrol
Test B) Inhibitory action on the growth of MK cells: The test system is described in detail above. The result is given as IC50 in μM (concentration of active ingredient at which inhibition is half the maximum inhibition).

Setting [2] is: Example 32, table 3, read-out: IC50 (inhibitory action on the intracellular domains of EGF-R (ICD)).
The mark [3] stands for this setting: Examples 16 to 22, read-out: IC50 (Test A: inhibitory action on EGF-R ICD).

Several values for one entry are separate records, joined by “and”; a condition that tells them apart may be missing. Identical values can stand only once. Like-named read-outs stand apart in the source and are kept apart here.

T1 sequence (P00533 669-1210 limits assumed): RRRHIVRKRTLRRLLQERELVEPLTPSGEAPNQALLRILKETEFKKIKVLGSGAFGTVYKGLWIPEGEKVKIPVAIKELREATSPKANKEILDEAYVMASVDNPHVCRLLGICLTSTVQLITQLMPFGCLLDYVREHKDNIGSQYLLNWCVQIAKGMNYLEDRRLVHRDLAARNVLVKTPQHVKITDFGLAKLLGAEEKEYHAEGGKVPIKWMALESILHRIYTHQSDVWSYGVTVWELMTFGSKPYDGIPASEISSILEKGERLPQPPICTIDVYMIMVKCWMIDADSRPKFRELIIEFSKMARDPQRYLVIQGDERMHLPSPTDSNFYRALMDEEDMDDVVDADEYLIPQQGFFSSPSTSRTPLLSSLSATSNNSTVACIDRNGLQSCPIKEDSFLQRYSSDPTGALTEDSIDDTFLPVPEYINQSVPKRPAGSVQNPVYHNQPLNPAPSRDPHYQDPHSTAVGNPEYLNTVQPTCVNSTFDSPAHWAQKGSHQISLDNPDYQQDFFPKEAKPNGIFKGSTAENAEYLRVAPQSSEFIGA

Regarding `Brc1cccc(Nc2ncnc3[nH]c4c(c23)CCCC4)c1` [Example 8, 4-(m-Bromoanilino)-5,6-tetramethylene-7H-pyrrolo[2,3-d]pyrimidine], the IC50 at EGF-R ICD (setting [2]) turned out to be 0.046 µM. The same measure, in the same setting: the same measure for `COc1cccc(Nc2ncnc3[nH]c4c(c23)CCCC4)c1` [Example 11, 4-(m-Methoxyanilino)-5,6-tetramethylene-7H-pyrrolo[2,3-d]pyrimidine]: 0.35 µM. The same measure, in the same setting: the same measure for `Clc1ccc(Nc2ncnc3[nH]c4c(c23)CCCC4)cc1Cl` [Example 15, 4-(m,p-Dichloroanilino)-5,6-tetramethylene-7H-pyrrolo[2,3-d]pyrimidine]: 0.15 µM; for `FC(F)(F)c1cccc(Nc2ncnc3[nH]c4c(c23)CCCC4)c1` [Example 14, 4-(m-Trifluoromethylanilino)-5,6-tetramethylene-7H-pyrrolo[2,3-d]-pyrimidine]: 0.36 µM. Turning to `COc1ccc(-c2cc3c(Nc4cccc(Cl)c4)ncnc3[nH]2)cc1` [Example 26, 4(m-Chloroanilino)-6-(4-methoxyphenyl)-7H-pyrrolo[2,3-d]pyrimidine], the IC50 on EGF-R ICD (setting [2]) stood at 0.015 µM. For `Cc1ccc(Nc2ncnc3[nH]c(C)c(C)c23)cc1` [Example 17, 4-(p-Methylanilino)-5,6-dimethyl-7H-pyrrolo[2,3-d]pyrimidine], the IC50 at EGF-R ICD (setting [3]) stood at 1.9 µM; in assay [1], 24.6 µM. For `Cc1cccc(Nc2ncnc3[nH]c(C)c(C)c23)c1` [Example 5, 4-(m-Methylanilino)-5,6-dimethyl-7H-pyrrolo[2,3-d]pyrimidine], the IC50 on EGF-R ICD (setting [2]) turned out to be 0.57 µM. As to `Cc1ccc(Nc2ncnc3[nH]c4c(c23)CCCC4)cc1` [Example 22, 4-(4-Methylanilino)-5,6-tetramethylene-7H-pyrrolo[2,3-d]pyrimidine], the IC50 is 0.11 µM at EGF-R ICD (setting [3]) and 13.9 µM in assay [1].

Turning to `Cc1[nH]c2ncnc(Nc3ccc(Cl)c(Cl)c3)c2c1C` [Example 18, 4-(m,p-Dichloroanilino)-5,6-dimethyl-7H-pyrrolo[2,3.d]pyrimidine], the IC50 at EGF-R ICD (setting [3]) came out at 0.07 µM; in assay [1], 34.8 µM. As for `Cc1[nH]c2ncnc(Nc3ccc(F)cc3)c2c1C` [Example 20, 4-(p-Fluoroanilino)-5,6-dimethyl-7H-pyrrolo[2,3-d]pyrimidine], the IC50 was 0.56 µM at EGF-R ICD (setting [3]) and 13.1 µM in assay [1]. With `COc1ccccc1-c1cc2c(Nc3cccc(Cl)c3)ncnc2[nH]1` [Example 31, 4-(m-Chloroanilino)-6-(2-methoxyphenyl)-7H-pyrrolo[2,3-d]pyrimidine], the IC50 at EGF-R ICD (setting [2]) was 0.019 µM. Same read-out and setting: the figure for `Clc1cccc(Nc2ncnc3[nH]c(-c4ccccc4)cc23)c1` [Example 28, 4-(m-Chloroanilino)-6-(phenyl)-7H-pyrrolo[2,3-d]pyrimidine] is 0.013 µM.

For `Cc1[nH]c2ncnc(Nc3cccc(Br)c3)c2c1C` [Example 2, 4-(m-Bromoanilino)-5,6-dimethyl-7H-pyrrolo[2,3-d]pyrimidine], the IC50 at EGF-R ICD (setting [2]) was found to be 0.025 µM. The same measure, in the same setting: the same measure for `COc1cccc(-c2cc3c(Nc4cccc(Cl)c4)ncnc3[nH]2)c1` [Example 30, 4-(m-Chloroanilino)-6-(3-methoxyphenyl)-7H-pyrrolo[2,3-d]pyrimidine]: 1.77 µM; for `Cc1cccc(Nc2ncnc3[nH]c4c(c23)CCCC4)c1` [Example 10, 4-(m-Methylanilino)-5,6-tetramethylene-7H-pyrrolo[2,3-d]pyrimidine]: 0.82 µM; for `COc1ccc(OC)c(-c2cc3c(Nc4cccc(Cl)c4)ncnc3[nH]2)c1` [Example 27, 4-(m-Chloroanilino)-6-(2,5-dimethoxyphenyl)-7H-pyrrolo[2,3-d]-pyrimidine]: 0.033 µM.

For `Fc1cccc(Nc2ncnc3[nH]c4c(c23)CCCC4)c1` [Example 9, 4-(m-Fluoroanilino)-5,6-tetramethylene-7H-pyrrolo[2,3-d]pyrimidine], the IC50 on EGF-R ICD (setting [2]) worked out at 0.2 µM.

In the case of `Cc1[nH]c2ncnc(Nc3cccc(F)c3)c2c1C` [Example 3, 4-(m-Fluoroanilino)-5,6-dimethyl-7H-pyrrolo[2,3-d]pyrimidine], the IC50 on EGF-R ICD (setting [2]) is 0.55 µM. On the same count and under the same terms, the figure for `Brc1cccc(Nc2ncnc3[nH]c(-c4ccccc4)c(-c4ccccc4)c23)c1` [Example 13, 4-(m-Bromoanilino)-5,6-diphenyl-7H-pyrrolo[2,3-d]pyrimidine] is 0.096 µM and 0.033 µM.

`COc1ccc(-c2[nH]c3ncnc(Nc4cccc(Cl)c4)c3c2C)cc1` [Example 29, 4-(m-Chloroanilino)-5-methyl-6-(4-methoxyphenyl)-7H-pyrrolo[2,3-d]-pyrimidine]: the IC50 at EGF-R ICD (setting [2]) is 0.43 µM. For `Cc1[nH]c2ncnc(Nc3cc(Cl)cc(Cl)c3)c2c1C` [Example 4, 4-(m,m-Dichloroanilino)-5,6-dimethyl-7H-pyrrolo[2,3-d]pyrimidine], the IC50 at EGF-R ICD (setting [2]) stood at 0.17 µM. For the compound `Cc1[nH]c2ncnc(Nc3ccccc3F)c2c1C` [Example 19, 4-(o-Fluoroanilino)-5,6-dimethyl-7H-pyrrolo[2,3-d]pyrimidine], the IC50 at EGF-R ICD (setting [3]) worked out at 1.6 µM; in assay [1], 49.3 µM.
